Patent US20100216795A1, “TNIK INHIBITOR AND THE USE” (priority 2008, published 2010)

What was measured:
Type in all cases: biochemical
[1] = target: T1, human TNIK (N-terminal segment, TNIK_N) (Homo sapiens, UniProt Q9UKE5); assay: TNIK kinase assay (mobility shift); details: stated in text of Test Example 2
T1 construct: made in house; host or cells: Sf21 insect cells (baculovirus)
From the text: A cDNA encoding the N-terminal segment (TNIK_N, residues 1-314) containing the kinase domain of human TNIK (NM_015028.1) was amplified from cDNA mixture synthesized from human tissue (Biochain) by PCR using the following primers: 5′-[…]-3′ ([SEQ ID NO:1]: forward primer, the underlined nucleotides indicates the location of a EheI site); 5′-[…]-3′ ([SEQ ID NO:2]: reverse primer, the underlined nucleotides indicates the location of a NotI site). The cDNA was subcloned into baculovirus transfer vector pFastBac_GSTb that includes protease cleavage site and glutathione S-transferase purification tag (GST-tag). The plasmid was purified and the insertion of the pFastBac_GSTb-TNIK_N was confirmed by DNA sequencing. Then E. coli DH10Bac competent cells were transformed with the plasmid to prepare the recombinant bacmid according to the instructions for the Bac-to-Bac™ baculovirus expression systems (Invitrogen). The Sf9 cells were transfected with the recombinant bacmid containing pFastBac_GSTb-TNIK_N using Cellfectin Reagent (Invitrogen) in SF-900II serum free media (Invitrogen). The viral supernatant was collected from the medium 72 h after transfection. The virus was amplified three times by infecting actively growing Sf9 or Sf21 cells in Grace's insect media (Invitrogen) supplemented with 10% FCS and an antibiotic-antimycotic reagent (Invitrogen) for 72 h at 27° C. in T-flask or roller bottles. The titer of amplified TNIK_N virus was estimated at 2.36×10^8 pfu/ml by using BacPAK™ Baculovirus Rapid Titer kit (Clontech).
Log-phase Sf21 cells (2×10^6 cells/ml) in the Grace's insect media were infected with the recombinant baculovirus at MOI of 3.0 and incubated in roller bottles (250 ml media per bottle) for 72 h at 27° C., after which, the cells were collected by centrifugation, and the cell pellet washed with cold PBS and kept at −80° C. until purification. The following purification procedures were carried out at 4° C. The frozen cells were thawed on ice and lysed in lysis buffer (50 mM Tris-HCl, pH 7.5, 150 mM NaCl, 1% Nonidet P-40, 5 mM DTT, 0.5 mM EDTA, 0.5 mM EGTA) supplemented with 1 mM phenylmethansulfonylfluoride, 2 μg/ml leupeptin, 2 μg/ml aprotinin, 1 mM NaF, 100 μM sodium orthovanadate, and 1 μM cantharidin by sonication. The suspended lysate was cleared by centrifugation at 9000 g for 20 min and the supernatant was incubated for 1 h with glutathione Sepharose beads (GE Healthcare). The beads were suspended in buffer-H (50 mM Tris-HCl, pH 7.5, 1 M NaCl, 1 mM DTT, 0.5 mM EDTA, 0.5 mM EGTA and 0.05% Brij35) and washed with buffer-H followed by buffer-L (50 mM Tris-HCl, pH 7.5, 150 mM NaCl, 1 mM DTT, 0.5 mM EDTA, 0.5 mM EGTA, 0.05% Brij35) in an Econo-pack column (BIO-RAD). The bound TNIK_N was eluted with elution buffer (50 mM Tris-HCl, pH 8.0, 150 mM NaCl, 1 mM DTT, 10% glycerol, 0.5 mM EDTA, 0.5 mM EGTA and 5 mM reduced glutathione). The eluted fractions were collected and determined the protein concentration by Bradford reagent (BIO-RAD). The TNIK_N fractions were pooled and desalted using 10DG column (BIORAD) equilibrated with the storage buffer (50 mM Tris-HCl, pH 7.5, 150 mM NaCl, 1 mM DTT, 10% glycerol, 0.05% Brij35). The purified TNIK_N was characterized by electrophoresis using 4-20% polyacrylamide gels and matrix-assisted laser desorption/ionization reflection time-of-flight (MALDI-TOF) mass spectrometry on a Voyager-DE RP MALDI/TOF (Applied Biosystems). TNIK_N was confirmed by the molecular weight and MASCOT Peptide Mass Fingerprint.
The kinase assays were conducted in a 20 μl volume using 384-well plates (Greiner). The reaction mixture consists of compound or vehicle (1% DMSO), 0.08 ng/μl TNIK_N, 1 μM FITC-labeled substrate peptides, FITC-x-Lys-Tyr-Lys-Thr-Leu-Arg-Gln ([SEQ ID NO.3], x: ε-aminocaproic acid), 20 mM Hepes, pH 7.5, 0.01% Triton X-100, 5 mM MgCl2, 25 μM ATP and 2 mM DTT. As blank, TNIK_N was excluded from the reaction mixture of vehicle (1% DMSO). […]

ABL = target: T2, ABL (Homo sapiens, UniProt P00519); assay: Selectivity profiling, QuickScout TK Screening Panel
T2 construct: purchased Carna Biosciences
Experimental: (§1) The inhibitory effects of Compound 1 against 20 tyrosine kinases and 30 serine/threonine kinases were investigated using QuickScout™ TK and STK Screening Panel (Carna Biosciences, Kobe Japan). […] The results reveal that Compound 1 inhibits TNIK_N more potently (IC50; 9 nM) than the other 50 kinases.

CSK = target: T3, CSK (Homo sapiens, UniProt P41240); assay: as above
T3 construct: purchased Carna Biosciences
Experimental: as §1

EphA2 = target: T4, EphA2 (Homo sapiens, UniProt P29317); assay: as above
T4 construct: purchased Carna Biosciences
Experimental: as §1

IGF1R = target: T5, IGF1R (Homo sapiens, UniProt P08069); assay: as above
T5 construct: purchased Carna Biosciences
Experimental: as §1

ITK = target: T6, ITK (Homo sapiens, UniProt Q08881); assay: as above
T6 construct: purchased Carna Biosciences
Experimental: as §1

JAK3 = target: T7, JAK3 (Homo sapiens, UniProt P52333); assay: as above
T7 construct: purchased Carna Biosciences
Experimental: as §1

KDR = target: T8, KDR (Homo sapiens, UniProt P35968); assay: as above
T8 construct: purchased Carna Biosciences
Experimental: as §1

MET = target: T9, MET (Homo sapiens, UniProt P08581); assay: as above
T9 construct: purchased Carna Biosciences
Experimental: as §1

PYK2 = target: T10, PYK2 (Homo sapiens, UniProt Q14289); assay: as above
T10 construct: purchased Carna Biosciences
Experimental: as §1

SRC = target: T11, SRC (Homo sapiens, UniProt P12931); assay: as above
T11 construct: purchased Carna Biosciences
Experimental: as §1

SYK = target: T12, SYK (Homo sapiens, UniProt P43405); assay: as above
T12 construct: purchased Carna Biosciences
Experimental: as §1

TIE2 = target: T13, TIE2 (Homo sapiens, UniProt Q02763); assay: as above
T13 construct: purchased Carna Biosciences
Experimental: as §1

TRKA = target: T14, TRKA (Homo sapiens, UniProt P04629); assay: as above
T14 construct: purchased Carna Biosciences
Experimental: as §1

T10 sequence (Q14289 whole entry): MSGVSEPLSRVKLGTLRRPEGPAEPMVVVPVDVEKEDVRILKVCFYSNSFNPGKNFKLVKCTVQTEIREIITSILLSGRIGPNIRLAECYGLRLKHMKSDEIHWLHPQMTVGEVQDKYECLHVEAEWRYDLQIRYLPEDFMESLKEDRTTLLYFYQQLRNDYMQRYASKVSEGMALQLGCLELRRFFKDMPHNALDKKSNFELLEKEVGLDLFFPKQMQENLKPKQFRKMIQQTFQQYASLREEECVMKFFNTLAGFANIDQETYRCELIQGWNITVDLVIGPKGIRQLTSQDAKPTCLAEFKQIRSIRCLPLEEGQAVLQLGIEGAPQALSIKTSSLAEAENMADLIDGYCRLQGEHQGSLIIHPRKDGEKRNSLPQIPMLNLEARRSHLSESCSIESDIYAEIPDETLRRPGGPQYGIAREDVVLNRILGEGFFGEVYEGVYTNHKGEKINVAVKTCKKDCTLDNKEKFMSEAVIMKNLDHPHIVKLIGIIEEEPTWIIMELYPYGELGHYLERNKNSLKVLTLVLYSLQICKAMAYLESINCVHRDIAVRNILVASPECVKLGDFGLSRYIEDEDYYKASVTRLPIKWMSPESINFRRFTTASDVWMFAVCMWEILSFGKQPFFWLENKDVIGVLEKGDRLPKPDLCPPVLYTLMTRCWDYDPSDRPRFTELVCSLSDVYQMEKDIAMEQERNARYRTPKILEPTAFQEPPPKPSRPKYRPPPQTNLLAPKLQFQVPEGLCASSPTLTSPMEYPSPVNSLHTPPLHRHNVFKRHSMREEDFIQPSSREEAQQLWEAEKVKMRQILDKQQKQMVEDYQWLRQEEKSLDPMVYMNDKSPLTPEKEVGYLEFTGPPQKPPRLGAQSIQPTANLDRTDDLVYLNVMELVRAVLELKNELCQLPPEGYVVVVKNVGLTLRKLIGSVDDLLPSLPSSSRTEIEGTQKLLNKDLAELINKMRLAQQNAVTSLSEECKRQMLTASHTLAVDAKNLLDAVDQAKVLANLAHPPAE
T1 sequence (Q9UKE5 1-314): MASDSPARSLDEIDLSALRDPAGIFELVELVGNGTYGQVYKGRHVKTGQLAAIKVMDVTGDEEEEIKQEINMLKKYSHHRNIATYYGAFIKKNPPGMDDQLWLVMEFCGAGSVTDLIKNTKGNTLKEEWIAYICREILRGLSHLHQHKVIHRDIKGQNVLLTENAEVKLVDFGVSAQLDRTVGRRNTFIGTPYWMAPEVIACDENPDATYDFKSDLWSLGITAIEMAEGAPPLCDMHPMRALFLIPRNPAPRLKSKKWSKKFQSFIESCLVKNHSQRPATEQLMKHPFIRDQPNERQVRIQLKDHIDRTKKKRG
T6 sequence (Q08881 whole entry): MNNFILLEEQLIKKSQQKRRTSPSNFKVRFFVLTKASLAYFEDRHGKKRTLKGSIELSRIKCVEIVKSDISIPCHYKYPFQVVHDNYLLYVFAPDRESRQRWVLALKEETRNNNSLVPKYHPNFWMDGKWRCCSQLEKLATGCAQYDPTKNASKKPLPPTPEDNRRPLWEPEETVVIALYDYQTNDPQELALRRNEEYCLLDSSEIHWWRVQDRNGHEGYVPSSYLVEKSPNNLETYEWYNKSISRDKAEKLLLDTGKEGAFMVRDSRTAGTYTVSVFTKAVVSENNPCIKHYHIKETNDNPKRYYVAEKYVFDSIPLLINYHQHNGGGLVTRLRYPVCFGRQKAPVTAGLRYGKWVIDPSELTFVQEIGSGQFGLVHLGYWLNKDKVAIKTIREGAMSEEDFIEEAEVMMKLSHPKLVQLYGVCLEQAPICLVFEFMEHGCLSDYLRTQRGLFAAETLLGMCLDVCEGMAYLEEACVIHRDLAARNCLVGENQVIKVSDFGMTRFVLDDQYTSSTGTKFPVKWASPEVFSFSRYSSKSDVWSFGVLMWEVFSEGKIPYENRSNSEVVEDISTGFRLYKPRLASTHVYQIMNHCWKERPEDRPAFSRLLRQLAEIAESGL
T2 sequence (P00519 whole entry): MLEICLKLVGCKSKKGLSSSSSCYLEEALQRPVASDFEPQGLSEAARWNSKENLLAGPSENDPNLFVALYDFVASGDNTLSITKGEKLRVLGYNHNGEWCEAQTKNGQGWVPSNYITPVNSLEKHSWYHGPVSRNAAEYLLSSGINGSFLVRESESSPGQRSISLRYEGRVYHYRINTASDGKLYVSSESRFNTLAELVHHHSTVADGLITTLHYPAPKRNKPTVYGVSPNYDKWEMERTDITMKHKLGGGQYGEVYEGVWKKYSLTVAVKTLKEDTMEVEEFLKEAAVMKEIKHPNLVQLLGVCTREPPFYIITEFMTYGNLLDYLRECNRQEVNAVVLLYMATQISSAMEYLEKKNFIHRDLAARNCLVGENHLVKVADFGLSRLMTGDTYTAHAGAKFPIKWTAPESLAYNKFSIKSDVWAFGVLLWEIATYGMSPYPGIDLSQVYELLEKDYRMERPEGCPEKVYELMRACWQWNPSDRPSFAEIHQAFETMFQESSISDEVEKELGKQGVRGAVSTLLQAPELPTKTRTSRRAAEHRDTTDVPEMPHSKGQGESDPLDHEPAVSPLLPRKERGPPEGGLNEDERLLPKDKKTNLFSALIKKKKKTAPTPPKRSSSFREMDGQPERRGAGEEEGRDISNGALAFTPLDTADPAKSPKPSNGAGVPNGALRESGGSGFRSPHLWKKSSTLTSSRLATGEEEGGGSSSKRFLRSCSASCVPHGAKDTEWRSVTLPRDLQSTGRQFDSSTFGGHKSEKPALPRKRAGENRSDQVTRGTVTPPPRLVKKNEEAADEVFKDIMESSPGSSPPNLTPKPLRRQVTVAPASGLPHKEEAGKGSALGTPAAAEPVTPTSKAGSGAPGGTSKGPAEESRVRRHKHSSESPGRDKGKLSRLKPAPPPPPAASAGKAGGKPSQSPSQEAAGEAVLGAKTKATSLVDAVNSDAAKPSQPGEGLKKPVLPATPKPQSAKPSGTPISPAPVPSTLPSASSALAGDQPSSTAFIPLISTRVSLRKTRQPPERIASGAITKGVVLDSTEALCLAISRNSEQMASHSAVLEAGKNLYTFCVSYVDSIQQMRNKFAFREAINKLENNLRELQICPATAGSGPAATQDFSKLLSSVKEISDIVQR
T9 sequence (P08581 25-1390): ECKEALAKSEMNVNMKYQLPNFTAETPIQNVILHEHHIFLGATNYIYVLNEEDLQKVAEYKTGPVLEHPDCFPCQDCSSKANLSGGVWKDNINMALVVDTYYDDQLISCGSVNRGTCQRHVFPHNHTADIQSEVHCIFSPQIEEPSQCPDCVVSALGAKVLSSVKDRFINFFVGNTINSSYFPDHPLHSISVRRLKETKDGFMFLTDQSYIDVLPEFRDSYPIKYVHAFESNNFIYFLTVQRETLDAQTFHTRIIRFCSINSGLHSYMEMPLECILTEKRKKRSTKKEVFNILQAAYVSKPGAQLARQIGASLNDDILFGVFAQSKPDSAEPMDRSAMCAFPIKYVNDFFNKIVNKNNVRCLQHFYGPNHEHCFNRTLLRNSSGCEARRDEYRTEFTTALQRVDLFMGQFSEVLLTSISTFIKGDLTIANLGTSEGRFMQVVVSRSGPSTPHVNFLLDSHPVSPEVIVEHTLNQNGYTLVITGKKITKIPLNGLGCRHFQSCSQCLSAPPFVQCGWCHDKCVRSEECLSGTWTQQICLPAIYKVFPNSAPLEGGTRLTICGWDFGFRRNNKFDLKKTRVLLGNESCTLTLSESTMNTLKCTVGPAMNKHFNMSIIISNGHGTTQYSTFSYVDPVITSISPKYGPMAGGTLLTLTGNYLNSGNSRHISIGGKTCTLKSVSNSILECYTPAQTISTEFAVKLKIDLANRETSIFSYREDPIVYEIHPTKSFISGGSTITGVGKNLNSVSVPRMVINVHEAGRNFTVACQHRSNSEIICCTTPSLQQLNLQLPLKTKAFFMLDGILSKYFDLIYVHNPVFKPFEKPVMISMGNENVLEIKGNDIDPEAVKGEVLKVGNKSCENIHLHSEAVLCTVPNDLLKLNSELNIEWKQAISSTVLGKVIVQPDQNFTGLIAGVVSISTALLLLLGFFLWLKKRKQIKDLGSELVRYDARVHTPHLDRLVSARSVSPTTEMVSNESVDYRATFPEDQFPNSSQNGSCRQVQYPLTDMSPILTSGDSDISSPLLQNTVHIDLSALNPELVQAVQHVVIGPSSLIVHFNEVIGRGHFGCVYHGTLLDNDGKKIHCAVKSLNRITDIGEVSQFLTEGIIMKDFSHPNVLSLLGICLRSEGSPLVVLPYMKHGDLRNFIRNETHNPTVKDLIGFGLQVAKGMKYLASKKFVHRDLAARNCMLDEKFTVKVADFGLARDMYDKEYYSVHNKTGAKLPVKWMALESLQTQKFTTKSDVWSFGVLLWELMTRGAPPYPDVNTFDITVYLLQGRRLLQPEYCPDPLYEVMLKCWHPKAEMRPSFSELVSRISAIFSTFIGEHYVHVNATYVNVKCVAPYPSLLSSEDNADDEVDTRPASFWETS
T11 sequence (P12931 whole entry): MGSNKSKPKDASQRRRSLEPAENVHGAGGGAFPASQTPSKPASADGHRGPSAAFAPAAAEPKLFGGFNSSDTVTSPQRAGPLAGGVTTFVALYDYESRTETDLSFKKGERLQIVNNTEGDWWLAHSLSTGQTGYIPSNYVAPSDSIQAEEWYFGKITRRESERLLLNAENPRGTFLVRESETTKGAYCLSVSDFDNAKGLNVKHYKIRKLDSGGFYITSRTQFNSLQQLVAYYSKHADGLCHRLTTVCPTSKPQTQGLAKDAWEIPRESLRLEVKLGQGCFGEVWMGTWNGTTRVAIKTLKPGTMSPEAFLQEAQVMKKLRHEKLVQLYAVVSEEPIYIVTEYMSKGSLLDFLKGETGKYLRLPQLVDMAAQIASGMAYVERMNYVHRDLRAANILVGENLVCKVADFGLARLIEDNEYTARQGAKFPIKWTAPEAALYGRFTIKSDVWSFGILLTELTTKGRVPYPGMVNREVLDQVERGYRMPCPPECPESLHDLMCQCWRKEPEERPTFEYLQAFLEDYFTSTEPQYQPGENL

IC50 [1]: 0.009 µM | IC50 (ABL): 0.29 µM | IC50 (CSK): > 0.3 µM | IC50 (EphA2): > 0.3 µM | IC50 (IGF1R): > 0.3 µM | IC50 (ITK): > 0.3 µM | IC50 (JAK3): > 0.3 µM | IC50 (KDR): 0.059 µM | IC50 (MET): > 0.3 µM | IC50 (PYK2): > 0.3 µM | IC50 (SRC): > 0.3 µM | IC50 (SYK): > 0.3 µM | IC50 (TIE2): > 0.3 µM | IC50 (TRKA): > 0.3 µM
Structure (SMILES): CC(=O)Nc1ccc(C(=O)Nc2sc(Nc3ccccc3)nc2C(N)=O)cc1 [Compound 1, 5-(4-acetamidobenzamido)-2-(phenylamino)thiazole-4-carboxamide]
